Literature values, collected in US9029598B2 (Colgate-Palmolive Company, priority 2009, dated 2015).

Settings: room temperature, natural partial pressure (3.5×10^−4 atmosphere)

O=C=O [Carbon dioxide]
maximum concentration of carbon dioxide in water: 12 µM
